Results published in US12358918B2, “Aryl hydrocarbon receptor (AHR) activator compounds as cancer therapeutics” (THE BROAD INSTITUTE, INC., priority 2018, dated 2025).

How the values were obtained:
[1] = system: MDA-MB-231 breast cancer cell lines; experiment: cytotoxicity, control cells vs cells overexpressing CYP1A1; format: cell-based
From the text: The dependence of each compound's cytotoxic effects upon CYP1A1 was also examined, via screening of MDA-MB-231 breast cancer cell lines for cytotoxic response. The CYP1A1-dependence of the cytotoxic response of to each tested compound was specifically determined by comparing the cytotoxicity of each compound administered to control cells with that of the compound administered to corresponding cells that overexpressed CYP1A1. […]

[2] = system: MDA-MB-468 and ZR51 breast cancer and JHH7 liver cancer cell lines

SMILES | CYP1A1-dependence of the cytotoxic response [1] | AHR-dependence of the cytotoxic response [2]
O=c1[nH]c2ccccc2c2nc(-c3ccco3)nn12 [2-(2-furyl)[1,2,4]triazolo[1,5-c]quinazolin-5(6H)-one] | CYP1A1-dependent cytotoxic | dependence upon AHR
c1ccc(-c2n[nH]c3c2oc2ccccc23)cc1 [GTP 14564, reference compound] | CYP1A1-dependent cytotoxic | dependence upon AHR
O=Cc1c2[nH]c3ccccc3c2cc2[nH]c3ccccc3c12 [FICZ, reference compound] | CYP1A1-dependent cytotoxic | dependence upon AHR
Cc1nc2ccc(Cl)cc2c2nc(-c3ccco3)nn12 [B2] | CYP1A1-dependent cytotoxic | dependence upon AHR
Nc1nc2cccc(F)c2c2nc(-c3ccco3)nn12 [A17] | CYP1A1-dependent cytotoxic | dependence upon AHR
Nc1nc2ccc(F)cc2c2nc(-c3ccco3)nn12 [BRO-023, 9-fluoro-2-(furan-2-yl)-[1,2,4]triazolo[1,5-c]quinazolin-5-amine] | CYP1A1-dependent cytotoxic | dependence upon AHR
O=c1[nH]c2ccc(Cl)c(Cl)c2c2nc(-c3ccco3)nn12 [A1] | CYP1A1-dependent cytotoxic | dependence upon AHR
Cc1ccc(-c2nc3c4ccccc4nc(C)n3n2)o1 [B5] | CYP1A1-dependent cytotoxic | dependence upon AHR
c1coc(-c2nc3c4ccccc4ncn3n2)c1 [2-(2-furyl)[1,2,4]triazolo[1,5-c]quinazoline] | CYP1A1-dependent cytotoxic | dependence upon AHR
O=C1NC(=O)c2c1c1c3ccccc3[nH]c1c1[nH]c3ccccc3c21 [Arcyriaflavin A, reference compound] | CYP1A1-dependent cytotoxic | dependence upon AHR
COc1ccc2nc(N)n3nc(-c4ccco4)nc3c2c1 [A15] | CYP1A1-dependent cytotoxic | dependence upon AHR
Sc1nc2ccccc2c2nc(-c3ccco3)nn12 [2-(2-furyl)[1,2,4]triazolo[1,5-c]quinazolin-5-yl hydrosulfide] | CYP1A1-dependent cytotoxic | dependence upon AHR
CSc1nc2ccccc2c2nc(-c3ccco3)nn12 [2-(2-furyl)-5-(methylsulfanyl)[1,2,4]triazolo[1,5-c]quinazoline] | CYP1A1-dependent cytotoxic | dependence upon AHR
Cn1cccc1-c1nc2c3cc(Cl)ccc3nc(N)n2n1 [BRO-018, 9-chloro-2-(1-methyl-1H-pyrrol-2-yl)-[1,2,4]triazolo[1,5-c]quinazolin-5-amine] | CYP1A1-dependent cytotoxic | dependence upon AHR
Nc1nc2ccc(C(F)(F)F)cc2c2nc(-c3ccco3)nn12 [BRO-024, 2-(furan-2-yl)-9-(trifluoromethyl)-[1,2,4]triazolo[1,5-c]quinazolin-5-amine] | CYP1A1-dependent cytotoxic | dependence upon AHR
Nc1nc2cc(Cl)ccc2c2nc(-c3ccco3)nn12 [BRO-026, 8-chloro-2-(furan-2-yl)-[1,2,4]triazolo[1,5-c]quinazolin-5-amine] | CYP1A1-dependent cytotoxic | dependence upon AHR
Cc1nc2cccc(Cl)c2c2nc(-c3ccco3)nn12 [B1] | CYP1A1-dependent cytotoxic | dependence upon AHR
